Laboratory results from article PMC4833932, “Cytotoxicity and cell cycle arrest induced by andrographolide lead to programmed cell death of MDA-MB-231 breast cancer cell line” (Journal of Biomedical Science, 2016).
Several values for one entry are separate records, joined by “and”; a condition that tells them apart may be missing. Equal entries are not always repeated.

What was measured:
[1] = test system: MDA-MB-231; experiment: In vitro cytotoxicity (MTT) assay; assay type: cell-based, human
Description: (§1) The effect of andrographolide on cell viability was measured by MTT assay following the method by Mosmann. Briefly, the cells (1 × 10^5 cells per ml) were seeded in a 96 well micro titer plate (100 μl per well) with replications. Treatment was conducted for 24 and 48 h with different concentrations (0, 5, 7.5, 15, 30, 45, 60, 75 and 100 μM) of andrographolide. After incubation, 20 μl of 5 mg/ml MTT stock solution was added to each well and incubated for 4 h at 37 °C. The obtained formazan crystals were solubilized with DMSO and the absorbance was measured at 570 nm using a microplate reader (SpectraMax M5, Molecular Devices, USA). Cell viability (%) has been shown as a ratio of absorbance (A570) in treated cells to absorbance in control cells (0.1 % DMSO) (A570). The IC50 was calculated as the concentration of sample needed to reduce 50 % of the absorbance in comparison to the DMSO-treated control. Percent cell viability was calculated following the equation: Cellviability%=A570Sample/A570ControlDMSO×100

[2] = test system: MCF-10A normal human breast epithelial immortalized cell line; experiment: In vitro cytotoxicity (MTT) assay; assay type: cell-based; conditions: for IC50: Homo sapiens, MCF-10A, MTT
Description: as §1

[3] = test system: MCF-7; experiment: In vitro cytotoxicity (MTT) assay; assay type: cell-based; conditions: Homo sapiens
Description: as §1

[4] = test system: T-47D; experiment: In vitro cytotoxicity (MTT) assay; assay type: cell-based; conditions: Homo sapiens, T47D
Description: as §1

[5] = test system: MCF-7 cells; experiment: Annexin V-FITC/PI flow cytometry (apoptosis); assay type: cell-based, human; conditions: MCF-7, IC50 concentration, 48 h
Description: (§2) In order to examine phosphatidyl serine externalization from inner to the outer cell membrane, a characteristic feature of apoptotic cell death and to quantify the percentage of apoptotic cell death, cultured MDA-MB-231 cells (1 × 10^6) were treated with 50 % inhibitory concentration (30 μM) of andrographolide for 24 h, 36 h and 48 h. Cells were resuspended in 1X binding buffer, labelled with fluorescein isothiocyanate (FITC)-conjugated Annexin V (200 μg/ml) and PI (30 μg/ml), incubated for 15 min at room temperature in the dark and analyzed by flow cytometry using BD FACSVerse™ (Becton Dickinson, USA). Data were analyzed using FACSuite™ software. For each set, total of 10,000 events were recorded. Similar experiment was also performed using MCF-7 cells treated with andrographolide for 48 h.

[6] = test system: MDA-MB-231 cells; experiment: Annexin V-FITC/PI flow cytometry (apoptosis); assay type: cell-based, human; conditions: 30 μM
Description: as §2

[7] = test system: Apaf-1; experiment: Western blot, protein expression in MDA-MB-231 cells; assay type: cell-based, human; conditions: 30 μM, 48 h
Description: (§3) Cells from control regime and andrographolide treatment (30 μM, 48 h) were used for Western blot. After centrifugation, cell pellets were lysed in RIPA buffer containing protease and phosphatase inhibitors (Roche, Germany). Each cell lysate was used for protein assay with Bio-Rad protein assay kit (Bio-Rad, USA). A protein sample of 50 μg was electrophoresed in a 12 % SDS-PAGE. Proteins were electro-transferred from the gel onto a nitrocellulose membrane (Amersham Biosciences, UK). After incubating with blocking buffer containing 5 % nonfat milk for 1 h, the membranes were probed with the primary antibody specific for Bcl-xL (1:750 dilution), Bcl-2 (1:1000), Bax (1:1000), cytochrome c (1:800) and Apaf-1 (1:500) at 4 °C. Membrane was then washed thrice with TBST (Tris buffered saline having 0.1 % Tween-20, pH 7.5), exposed to horseradish peroxidase conjugated secondary antibody (1:2500) and was then kept at 25 °C for 1 h. The membrane was then finally washed thrice with TBST. The protein bands were visualized by incubating the membrane with diaminobenzidine/hydrogen peroxide (Sigma-Aldrich) for color reaction. β-Actin and COX IV were also detected as loading controls.

[8] = test system: Bax; experiment: as above; assay type: cell-based, human; conditions: 30 μM, 48 h
Description: as §3

[9] = test system: Bcl-2; experiment: as above; assay type: cell-based, human; conditions: 30 μM, 48 h
Description: as §3

[10] = test system: Bcl-xL; experiment: as above; assay type: cell-based, human; conditions: 30 μM, 48 h
Description: as §3

[11] = test system: cytochrome c; experiment: Western blot of cytosolic and mitochondrial fractions of MDA-MB-231 cells; assay type: cell-based, human; conditions: 30 μM, 48 h
Description: Cells were treated with andrographolide (30 μM) for 48 h and mitochondrial as well as cytosolic fractions were obtained with a mitochondria isolation kit (Pierce, Rockford, USA). The mitochondrial pellet was re-suspended in sample buffer for SDS-gel electrophoresis and analyzed by Western blot using cytochrome c antibody. COX IV and β-actin were used as loading controls for the mitochondrial fraction and cytosolic fraction respectively. Cytosolic fractions were also Western blotted for studying cytochrome c expression.
Cells from control regime and andrographolide treatment (30 μM, 48 h) were used for Western blot. After centrifugation, cell pellets were lysed in RIPA buffer containing protease and phosphatase inhibitors (Roche, Germany). Each cell lysate was used for protein assay with Bio-Rad protein assay kit (Bio-Rad, USA). A protein sample of 50 μg was electrophoresed in a 12 % SDS-PAGE. Proteins were electro-transferred from the gel onto a nitrocellulose membrane (Amersham Biosciences, UK). […] The protein bands were visualized by incubating the membrane with diaminobenzidine/hydrogen peroxide (Sigma-Aldrich) for color reaction. β-Actin and COX IV were also detected as loading controls.

[12] = test system: MDA-MB-231; experiment: Cellular ROS level (DCF-DA); assay type: cell-based, human; conditions: 15, 30, 45 and 60 μM, 12-48 h
Description: To estimate intracellular ROS level, MDA-MB-231 (2 × 10^4 cells per well) were treated with andrographolide (15, 30, 45 and 60 μM) for 12–48 h and were harvested by centrifugation for the assay. The cell suspension (200 μl, containing 1 × 10^5 cells per ml) was mixed to PBS (800 μl) and 10 μM 2ʹ, 7ʹ-dichlorofluorescein diacetate (DCF-DA) and kept at 37 °C for 30 min in the dark. 25 μM H2O2 was used for positive control. The intracellular ROS level was measured by determining the production of H2O2 using a spectrofluorometer (excitation, 488 nm; emission, 515 nm). Another set of experiment was similarly performed where MDA-MB-231 cells were pre-treated with 3 mM NAC for 1 h followed by without or with andrographolide (30 μM) treatment. Same experiment was also performed using MCF-7 cells.

[13] = test system: caspase-7; experiment: Caspase activity assay in MCF-7 cells; assay type: cell-based, human; conditions: MCF-7, 0-80 μM, 24 h
[14] = test system: male mice; parameters: method as in PMID 2228074; conditions: intraperitoneal route; cited from earlier work
[15] = test system: platelets; parameters: method as in PMID 21822619; dose or concentration left out as unconfirmed; conditions: cited from earlier work

SMILES: C=C1CC[C@@H]2[C@](C)(CO)[C@H](O)CC[C@@]2(C)[C@@H]1C/C=C1/C(=O)OC[C@H]1O [andrographolide]
- IC50 ([1]; Homo sapiens, MDA-MB-231, 24 h): 52 µM
- IC50 ([1]; Homo sapiens, MDA-MB-231, 48 h): 30 µM
- IC50 ([1]; MDA-MB-231, 48 h): 30.3 µM
- IC50 at 48 h for MCF-10A higher than that for MDA-MB-231 cells ([2]; 48 h, MCF-10A vs MDA-MB-231): ~3.5 fold
- IC50 ([2]; 24 h): 138 µM
- IC50 ([2]; 48 h): 106 µM
- treatment did not affect normal breast epithelial cells, MCF-10A ([2]; abstract, quantity not named (presumably viability)): > 80%
- IC50 ([3]; MCF7, MCF-7, 24 h): 61.1 µM
- IC50 ([3]; MCF7, MCF-7, 48 h): 36.9 µM
- IC50 ([4]; 24 h): 118 µM
- IC50 ([4]; 48 h): 72.6 µM
- percentage of apoptotic cells [5]: 41.17%
- early apoptotic cells (annexin V+ and PI-) ([6]; 24 h): 16.76 ± 0.51%
- late apoptotic cells (annexin V+ and PI+) ([6]; 24 h): 32.2 ± 2.2% and 32%
- early apoptotic cells (annexin V+ and PI-) ([6]; 36 h): 12.23 ± 0.29%
- late apoptotic cells (annexin V+ and PI+) ([6]; 36 h): 60.06 ± 0.6%
- early apoptotic cells (annexin V+ and PI-) ([6]; 48 h): 5.89 ± 0.67%
- cell population in necrotic phase ([6]; all the treated conditions (24, 36, 48 h)): < 1%
- Apaf-1 expression, increase [7]: 1.49 ± 0.17 fold
- Bax expression, up-regulated [8]: 2.39 ± 0.45 fold
- Bcl-2 expression, down regulated [9]: 1.96 ± 0.14 fold
- Bcl-xL expression, down-regulated compared to control [10]: 1.47 ± 0.06 fold
- cytosolic cytochrome c expression, increase ([11]; cytosolic fraction): 7.13 ± 1.17 fold
- cytochrome c in the mitochondrial fraction, decrease ([11]; mitochondrial fraction): 1.92 ± 0.05 fold
- ROS generation (DCF fluorescence) [12]: increasing ROS generation with longer exposure and elevated dose
- caspase-7 (effector caspase) activation [13]: activation in a dose-dependent manner
- LD50 [14]: 11460 mg/kg
- cytotoxic effect on platelets [15]: no cytotoxic effect
